How the values were obtained:
[1] = test system: U87MG cells; assay: Cell cycle analysis by flow cytometry; assay type: cell-based, human; settings: 0.93 μM
Protocol: As per the results of the MTT assay, there was an inhibition of cell proliferation that was further validated by determining the cellular damage, DNA damage and oxidative stress. Therefore, we went forward to investigate the DNA content by flow cytometry. […] We also observed a low S phase and M phase after the complex treatment (Fig. 4).
Fig. 4 Cell cycle analysis with the control U87MG cells (above) and the treatment of 0.93 μM 4d (below). TEXT PRINTED IN THE PICTURE: 4d: G0-G1(70.49%); S(21.32%); M(2.49%); Sub G1(3.48%) DOUBTS OF THE COPYIST ABOUT THIS PICTURE: 4d, G0-G1: 70.49% - blurred print, 9 could be 8 / 4d, S: 21.32% - blurred print, 3 could be 8 / 4d, M: 2.49% - blurred print, 9 could be 8 / 4d, Sub G1: 3.48% - blurred print, 3 and 8 not certain (3.46 or 3.48) / The Control plots (untreated cells, not a substance) print P2(43.61%), P3(29.04%), P4(24.36%), Sub G1(6.24%); these are left out of the lines, and their digits are blurred too

[2] = Solubility; settings: DMSO-10% DMEM medium (1:99 v/v, comparable to cell media)
[3] = test system: TNF-α-induced NF-κB phosphorylation; assay: Real-time RT-PCR; assay type: cell-based, human; settings: glioma cells, 48 h
Source text: It is known that the NF-κB pathway plays an important role in the modulation of inflammatory and immune responses.[25] Under normal conditions, NF-κB is found in the cytoplasm as the dimer complex p65/p50 with the kappa B inhibitor forming the NF-κB-IκB complex which involves TNF-α. As expected, the treatment with TNF-α induces IκB protein phosphorylation and the NF-κB dimer p65/p50 is translocated into the nucleus. Inside the nucleus, the NF-κB dimer binds to its own DNA and the κB site, initiating the transcription of many genes associated with proliferation as well as the invasion of cells, anti-apoptosis along with drug resistivity (e.g., Bcl-2 family, Bcl-XL, cyclin D1, c-myc, interleukin-1 and 6 (IL-6), cyclooxygenase-2 (COX-2), inducible NO-synthase (iNOS)). Complex 4c reduced TNF-α-induced NF-κB phosphorylation at 48 h. In summary, complex 4c inhibited the TNF-α-induced NF-κB phosphorylation in glioma cells and NF-κB could be validated as a targeted therapeutic molecule for tumour diseases (Fig. S5 ^†).
Cultured cells U87MG and T98G were treated with various concentrations of 4c (20–160 μM) for 48 h. Total RNA was extracted and complementary DNA (cDNA) was transcribed using Qiazol reagent and Thermo Scientific Revert Aid First Strand cDNA Synthesis Kit. […] The amplified products were analyzed by a melting curve analysis.

[4] = test system: zebrafish embryos; settings: embryos exposed for 5 h to 100 μM
Protocol: Zebrafish were purchased from Zebrafish CRO, Pentagrit Discovery, Chennai 600100. All the procedures were conducted with reference to the guidelines of OECD 203 (OECD 203, 1992).[29] The local wild-type zebrafish strain weighing approximately 500–600 mg (2–3 months old) were maintained under standard laboratory conditions at 28 °C under a 14 : 10 h light/dark cycle with the conductivity of the water being 350 μS, maintained at pH 7.2–7.4. All the animal experiments including surgical procedures were conducted according to the procedures of the Committee for the Purpose of Control and Supervision of Experiments on Animals (CPCSEA), Govt. of India, as instructed by Institutional Animal ethical guidelines (VIT/IAEC/2019/16/Aug10/15), VIT University.[29] All animal procedures were performed in accordance with the Guidelines for Care and Use of Laboratory Animals of “VIT” University and approved by the Animal Ethics Committee of “VIT”.
Freshly laid eggs [<1 h post-fertilisation (hpf)] were transferred to 50 ml crystallising dishes filled with the respective test solutions. After the successful control of fertilisation, the eggs were separately transferred to 24-well plates with 2 ml of test solution per well. […] The embryos were analysed under an Olympus CKX41 inverted microscope (Olympus, Hamburg, Germany).

[5] = test system: Ct-DNA; assay: DNA binding study, UV-visible absorption titration; parameters: species or system calf
Protocol: The DNA binding proficiency of RAPTA complexes was explored by applying the concept of electronic absorption titration. The binding propensity of the RAPTA complex, 4c with Ct-DNA, was investigated using UV-visible studies. […] From the plot of [DNA]/(εa − εf) vs. [DNA] the intrinsic binding constant (Kb) was recognized for the specified 4c–DNA conjugate.
The binding capability of the complexes with calf-thymus DNA (Ct-DNA) was evaluated using electronic absorption spectroscopy, and the competitive binding assay was studied using ethidium bromide (EtBr) as a quencher by fluorescence spectroscopy.
The DNA binding experiment was performed in aqueous medium using RAPTA complex 4c in Tris-HCl buffer (5 mM Tris-HCl in water, pH 7.4). The concentration of Ct-DNA was determined using its absorbance at 260 nm and a known molar absorption coefficient of 6600 M-1.cm-1. In cuvettes, an equal amount of DNA was introduced to both the sample and the reference. […] The sample was equilibrated with CT-DNA for around 5 minutes before each measurement, and then the complex's absorbance was measured. The intrinsic DNA binding constant (K b) was calculated using the equation (i): […]
UV and Fluorescence study
All of these RAPTA complexes were studied in a 10% DMSO solution using UV and fluorescence. […] Quantum yield was calculated according to the equation (ii): […]

[6] = n-Octanol/water partition coefficient, shake-flask method
Protocol: n-Octanol–water partition coefficient (log P o/w)8
Using the previously reported shake flask approach, the log Po/w of the RAPTA complexes
followed the previously described procedure. An orbital shaker was used to shake a known
amount of each complexes in water (pre-saturated with n-octanol). The solution was
centrifuged at 3000 rpm for 10 minutes to allow phase separation. Different ratios (0.5:1, 1:1,
and 2:1) of saturated solutions were shaken for 20 minutes on an orbital shaker with pre-
saturated n-octanol to get the partition coefficient. The absorbance of aliquots of the aqueous
and octanol layers were measured with a UV-Vis spectrophotometer after adequate dilution.
The concentrations of the complexes in each layer were estimated using the corresponding
molar extinction coefficients, and the partition coefficient (log Po/w) values were computed

C1N2CN3CN1CP(C2)C3.Cc1ccc(C(C)C)cc1.F[P-](F)(F)(F)(F)F.F[P-](F)(F)(F)(F)F.[Ru+2].c1ccc(-c2ccnc3c2ccc2c(-c4ccccc4)ccnc23)cc1 [4d, [(η^6-p-Cymene)Ru^II(κ^2-N,N-4,7diphenylphenanthroline)(PTA)]·2PF6]
G0/G1 phase [1]: ~70.49%

C1N2CN3CN1CP(C2)C3.Cc1ccc(C(C)C)cc1.Cc1ccnc2c1ccc1c(C)ccnc12.F[P-](F)(F)(F)(F)F.F[P-](F)(F)(F)(F)F.[Ru+2] [4c, [(η^6-p-Cymene)Ru^II(κ^2-N,N-4,7dimethylphenanthroline)(PTA)]·2PF6]
solubility [2]: 18 mM | TNF-α-induced NF-κB phosphorylation [3]: reduced | morbidity or mortality of embryos [4]: No significant morbidity or mortality | Change in absorbance [5]: Hyperchromism | Δε (%), % of hyperchromism/hypochromism [5]: 50% | log P (partition coefficient in n-octanol/water) [6]: 0.30±0.04

Reference: PMC9241057, “Ru(II)arene(N^N bpy/phen)-based RAPTA complexes for in vitro anti-tumour activity in human glioblastoma cancer cell lines and in vivo toxicity studies in a zebrafish model” (RSC Advances, 2022)
